From PubChem BioAssay AID624057 (Broad Institute, 2012)
Values joined by “and” are separate entries in the source; they are usually repeats but may differ in a detail not shown here. Identical values can stand only once. Active and inactive are the calls of the source. The rule behind the calls is not given here.

Tests used:
[1] = molecular target: Glycogen synthase kinase-3 beta (Homo sapiens) (UniProt P49841); assay: lower pTau relative to total Tau in cells – cell-based, SH-SY5Y, ELISA, pTau Ser199, powder samples, dose response (AID 624057)
Chain of Glycogen synthase kinase-3 beta (Homo sapiens) (P49841 whole entry, looked up): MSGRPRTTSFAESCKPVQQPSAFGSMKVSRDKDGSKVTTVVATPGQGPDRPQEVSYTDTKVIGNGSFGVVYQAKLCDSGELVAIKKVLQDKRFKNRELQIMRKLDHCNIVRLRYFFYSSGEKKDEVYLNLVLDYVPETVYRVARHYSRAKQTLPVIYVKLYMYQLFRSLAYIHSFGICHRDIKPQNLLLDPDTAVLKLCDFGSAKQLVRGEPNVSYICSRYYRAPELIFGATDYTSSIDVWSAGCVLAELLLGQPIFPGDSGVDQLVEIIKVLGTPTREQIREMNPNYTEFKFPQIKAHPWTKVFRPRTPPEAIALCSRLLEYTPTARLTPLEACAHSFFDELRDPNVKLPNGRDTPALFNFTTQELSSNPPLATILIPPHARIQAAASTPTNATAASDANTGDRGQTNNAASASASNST

[2] = as above; conditions: measured here: cell survival (total Tau) top dose, at 35 µM, stronger effect = lower value

SMILES: COc1ccccc1C1C2=C(CC(C)(C)CC2=O)Nc2n[nH]c(C)c21 (stereo not drawn)
- IC50 [1]: 7100 nM

SMILES: Cc1[nH]nc2c1C(c1ccccc1C(F)(F)F)C1=C(CC(C)(C)CC1=O)N2 (stereo not drawn)
- IC50 [1]: 4240 nM

SMILES: CC1(C)CC(=O)C2=C(C1)Nc1n[nH]c(C(F)(F)F)c1C2c1ccccc1 (stereo not drawn)
- IC50 [1]: 510 nM

SMILES: Cc1[nH]nc2c1C(c1cccc3nonc13)C1=C(CC(C)(C)CC1=O)N2 (stereo not drawn)
- viability [2]: 112%
- IC50 [1]: 2270 nM

SMILES: CC1(C)CC(=O)C2=C(C1)Nc1n[nH]c(C(F)(F)F)c1C2c1ccccc1C(F)(F)F (stereo not drawn)
- IC50 [1]: 410 nM

SMILES: Cc1[nH]nc2c1C(c1ccccc1F)C1=C(CC(C)(C)CC1=O)N2 (stereo not drawn)
- viability [2]: 113%

SMILES: COc1ccccc1[C@@H]1C2=C(CC(C)(C)CC2=O)Nc2n[nH]c(C)c21
- IC50 [1]: 6570 nM and > 35000 nM (inactive)

SMILES: CC1(C)CC(=O)C2=C(C1)Nc1n[nH]c(C(F)(F)F)c1C2c1cccc(F)c1C(F)(F)F (stereo not drawn)
- viability [2]: 57.1%
- IC50 [1]: 1380 nM

SMILES: Cc1[nH]nc2c1[C@@H](c1ccccc1C(F)(F)F)C1=C(CC(C)(C)CC1=O)N2
- viability [2]: 110%
- IC50 [1]: 2270 nM

SMILES: CC1(C)CC(=O)C2=C(C1)Nc1n[nH]c(C(F)(F)F)c1C2(C)c1ccccc1 (stereo not drawn)
- IC50 [1]: 1870 nM

SMILES: Cc1[nH]nc2c1[C@H](c1ccccc1C(F)(F)F)C1=C(CC(C)(C)CC1=O)N2
- IC50 [1]: > 35000 nM (inactive)

SMILES: COc1ccccc1[C@H]1C2=C(CC(C)(C)CC2=O)Nc2n[nH]c(C(F)(F)F)c21
- IC50 [1]: > 35000 nM (inactive)

SMILES: COc1ccccc1[C@@H]1C2=C(CC(C)(C)CC2=O)Nc2n[nH]c(C(F)(F)F)c21
- IC50 [1]: 560 nM

SMILES: Cc1[nH]nc2c1C(c1ccccc1Cl)C1=C(CC(C)(C)CC1=O)N2 (stereo not drawn)
- IC50 [1]: 2490 nM

SMILES: COc1ccccc1C1C2=C(CC(C)(C)CC2=O)Nc2n[nH]c(C(F)(F)F)c21 (stereo not drawn)
- IC50 [1]: 2750 nM and 760 nM

SMILES: Cc1[nH]nc2c1C(c1cccc(C#N)c1)C1=C(CC(C)(C)CC1=O)N2 (stereo not drawn)
- viability [2]: 119%
- IC50 [1]: 2500 nM

SMILES: Cc1[nH]nc2c1C(c1cccc(C(F)(F)F)c1)C1=C(CC(C)(C)CC1=O)N2 (stereo not drawn)
- IC50 [1]: 4680 nM

SMILES: CSc1ccccc1C1C2=C(CC(C)(C)CC2=O)Nc2n[nH]c(C)c21 (stereo not drawn)
- viability [2]: 106%
- IC50 [1]: 2850 nM
